From patent publication US20250093315A1, “MOLECULAR SENSORS, METHOD AND KIT FOR THE DETECTION AND QUANTIFICATION OF CARBON DIOXIDE” (ETH Zurich, priority 2022, published 2025) come the findings set out here.

In one test the test system is HeLa cells. Kind of test: Cell imaging of CO2. Conditions: 5 μM for 10 minutes; ambient air or 5% CO2; imaged at different time points. Type of test: cell-based. As for the experimental part: The selectivity of the compound (I4) was evaluated against common analytes in cells. HeLa cells were treated with compound (I4) [5 μM] for 10 minutes, followed by washing thrice to remove excess sensor. Then, as an exogenous CO2 model, the cells were incubated under ambient air or at 5% CO2 and imaged at different time points. […] In addition, time-dependent response of cells that were incubated under ambient conditions was attributed to basal levels of CO2 production by metabolic processes.

Test [1] is described as follows: Reaction kinetics by fluorescence at varying concentrations of sensor or CO2. Conditions: dependence for both (I1) and carbon dioxide. The text has this: The reaction kinetics were investigated with the same compounds of Formulae (I1) and (I1b) by measuring fluorescence at different time points using varying concentrations of either (I1) or carbon dioxide.

Structures are written as SMILES.

In the case of `CN(C)c1ccc2c(NCc3ccccc3N=P(c3ccccc3)(c3ccccc3)c3ccccc3)c3ccc(=[N+](C)C)cc-3oc2c1` [(I4)], the “fluorescent signal in cells” value in the test on HeLa cells was “significant time-dependent fluorescent increase in the red channel and decrease in the green channel”. Regarding `CCN(CC)c1ccc2c(NCc3ccccc3N=P(c3ccccc3)(c3ccccc3)c3ccccc3)cc(=O)oc2c1` [Compound (I1)], in test [1], the reaction order result is listed as “first-order dependence”.
